Literature values as cited in US9839604B1, “Composition for an anti-aging treatment” (Parham Tabibian, MD, Inc., priority 2014, dated 2017).

Experiments:
[1] = compared with other forms of Vitamin K1 and K2, also remains in the bloodstream longer
[2] = humectant capacity

Row | levels reached in the bloodstream relative to other forms of Vitamin K1 and K2 [1] | water attracted and bound [2] | Compound
1 | seven- to eight-fold higher | – | CC(C)=CCC/C(C)=C/CC/C(C)=C/CC/C(C)=C/CC/C(C)=C/CC/C(C)=C/CC/C(C)=C/CC1=C(C)C(=O)c2ccccc2C1=O [MK-7]
2 | – | up to 1800 times its own weight in water | hyaluronic acid
